Data taken from patent US6410580B1, “Sulfonylamino derivatives which inhibit matrix-degrading metalloproteinases” (Novartis AG, priority 2000, dated 2002).

SMILES | melting point
Cn1c(=O)n(CCC[C@@H](NS(=O)(=O)c2ccc(-c3ccccc3)cc2)C(=O)NO)c(=O)c2ccccc21 [Example 20, (2R)-(4-Biphenylsulfonylamino)-5-(1,2,3,4-tetrahydro-1-methyl-2,4-dioxoquinazolin-3-yl)pentanoic Acid Hydroxyamide] | 202 to 203 °C
O=C(NO)[C@@H](CCCN1C(=O)c2ccccc2S1(=O)=O)NS(=O)(=O)c1ccc(-c2ccc(Cl)cc2)cc1 [Example 18, (2R)-(4′-Chlorobiphenyl-4-sulfonylamino)-5-(1,1,3-trioxo-2,3-dihydrobenzoisothiazol-2-yl)pentanoic Acid Hydroxyamide] | 200 to 205 °C (dec.)
O=C(O)[C@@H](CCCN1C(=O)c2ccccc2C1=O)NS(=O)(=O)c1ccc(-c2ccc(Cl)cc2)cc1 [Example 1, (2R)-(4′-Chlorobiphenyl-4-sulfonylamino)-5-(1,3-dioxo-1,3-dihydroisoindol-2-yl)pentanoic Acid] | 179 to 181 °C
CN1C(=O)N(CC[C@@H](NS(=O)(=O)c2ccc(-c3ccc(Cl)cc3)cc2)C(=O)NO)C(=O)C1(C)C [Example 38, (2R)-(4′-Chlorobiphenyl-4-sulfonylamino)-4-(3,4,4-trimethyl-2,5-dioxoimidazolidin-1-yl)-butyric Acid Hydroxyamide] | 117 to 120 °C
O=C(O)[C@@H](CC(=O)N1CCOCC1)NS(=O)(=O)c1ccc(Oc2ccccc2)cc1 [Example 42, (2R)-(4-Phenyloxybenzenesulfonylamino)-4-morpholin-4-yl-4-oxobutyric Acid] | 147 to 149 °C
O=C(NO)[C@@H](CCCN1C(=O)c2ccccc2C1=O)NS(=O)(=O)c1ccc(-c2ccc(Cl)cc2)cc1 [Example 2, (2R)-(4′-Chiorobiphenyl4-sulfonylamino)-5-(1,3-dioxo-1,3-dihydroisoindol-2-yl)pentanoic Acid Hydroxyamide] | 204 to 206 °C (dec.)
O=C(O)[C@@H](CCCN1C(=O)c2ccccc2S1(=O)=O)NS(=O)(=O)c1ccc(-c2ccc(Cl)cc2)cc1 [Example 3, (2R)-(4′-Chlorobiphenyl-4-sulfonylamino)-5-(1,1,3-trioxo-2,3-dihydrobenzoisothiazol-2-yl)pentanoic Acid] | 177 to 179 °C
Cn1c(=O)n(CCCCC(NS(=O)(=O)c2ccc(-c3ccc(Cl)cc3)cc2)C(=O)O)c(=O)c2ccccc21 [Example 31, (2R,S)-(4′-Chlorobiphenyl-4-sulfonylamino)-6-(1,2,3,4-tetrahydro-1-methyl-2,4-dioxoquinazolin-3-yl)hexanoic Acid] | 208 to 210 °C

Now from value to compound:

melting point | SMILES
43 °C | CN1C(=O)N(CC[C@@H](NS(=O)(=O)c2ccc(-c3ccc(Cl)cc3)cc2)C(=O)O)C(=O)C1(C)C [Example 35, (2R)-(4′-Chlorobiphenyl-4-sulfonylamino)-4-(3,4,4-trimethyl-2,5-dioxoimidazolidin-1-yl)-butyric Acid]
222 to 224 °C | Cn1c(=O)n(CCC[C@@H](NS(=O)(=O)c2ccc(-c3ccccc3)cc2)C(=O)O)c(=O)c2ccccc21 [Example 5, (2R)-(4-Biphenylsulfonylamino)-5-(1,2,3,4-tetrahydro-1-methyl-2,4-dioxoquinazolin-3-yl)pentanoic Acid]
70 °C | O=C(O)[C@@H](CCN1C(=O)[C@@H]2Cc3ccccc3CN2C1=O)NS(=O)(=O)c1ccc(-c2ccc(Cl)cc2)cc1 [Example 36, (2R)-(4′-Chlorobiphenyl-4-sulfonylamino)-4-[(1,3-dioxo-1,5,10, (10aS)-tetrahydroimidazo-[1,5-b]isoquinolin-2-yl)]butyric Acid]
78 to 80 °C | CC1(C)NC(=O)N(CCCCC(NS(=O)(=O)c2ccc(-c3ccc(Cl)cc3)cc2)C(=O)O)C1=O [Example 32, (2R,S)-(4′-Chlorobiphenyl-4-sulfonylamino)-6-(4,4-dimethyl-2,5-dioxoimidazolidin-1-yl)-hexanoic Acid]
218 °C (dec.) | Cn1c(=O)n(CC(NS(=O)(=O)c2ccc(-c3ccc(Cl)cc3)cc2)C(=O)O)c(=O)c2ccccc21 [Example 40, (2R,S)-(4′-Chlorobiphenyl-4-sulfonylamino)-3-(1,2,3,4-tetrahydro-1-methyl-2,4-dioxoquinazolin-3-yl)propanoic Acid]
188 to 191 °C | Cn1c(=O)n(CCC[C@@H](NS(=O)(=O)c2ccc(-c3ccc(Cl)cc3)cc2)C(=O)O)c(=O)c2ccccc21 [Example 4, (2R)-(4′-Chlorobiphenyl-4-sulfonylamino)-5-(1,2,3,4-tetrahydro-1-methyl-2,4-dioxoquinazolin-3-yl)pentanoic Acid]
198 to 201 °C | CN1C(=O)N(CC(NS(=O)(=O)c2ccc(-c3ccc(Cl)cc3)cc2)C(=O)O)C(=O)C1(C)C [Example 39, (2R,S)-(4′-Chlorobiphenyl-4-sulfonylamino)-3-(3,4,4-trimethyl-1,2,5-dioxoimidazolidin-1-yl)propanoic Acid]
144 to 146 °C | O=C(O)[C@@H](CC(=O)N1CCOCC1)NS(=O)(=O)c1ccc(-c2ccc(Cl)cc2)cc1 [Example 43, (2R)-(4′-Chlorobiphenyl-4-sulfonylamino)-4-morpholin-4-yl-4-oxobutyric Acid]
235 °C | Cn1c(=O)n(CCC[C@@H](NS(=O)(=O)c2ccc(-c3ccc(Cl)cc3)cc2)C(=O)NO)c(=O)c2ccccc21 [Example 19, (2R)-(4′-Chlorobiphenyl-4-sulfonylamino)-5-(1,2,3,4-tetrahydro-1-methyl-2,4-dioxoquinazolin-3-yl)pentanoic Acid Hydroxyamide]
62 °C | Cc1ccc(S(=O)(=O)NCCC[C@@H](NS(=O)(=O)c2ccc(-c3ccc(Cl)cc3)cc2)C(=O)O)cc1 [Example 7, (2R)-(4′-Chlorobiphenyl-4-sulfonylamino)-5-(4-methylbenzenesulfonylamino)pentanoic Acid]
161 to 163 °C | O=C(NO)[C@@H](CC(=O)N1CCOCC1)NS(=O)(=O)c1ccc(Oc2ccccc2)cc1 [Example 44, (2R)-(4-Phenyloxybenzenesulfonylamino)-4-morpholin-4-yl-4-oxobutyric Acid Hydroxyamide]
139 to 141 °C | O=C(NO)[C@@H](CC(=O)N1CCOCC1)NS(=O)(=O)c1ccc(-c2ccc(Cl)cc2)cc1 [Example 45, (2R)-(4′-Chlorobiphenyl-4-sulfonylamino)-4-morpholin-4-yI-4-oxobutyric Acid Hydroxyamide]
